Active and inactive are the calls of the source. The rule behind the calls is not given here.

Results on three molecules are retold here after PubChem BioAssay AID1259407 (Chemical Carcinogenesis Research Information System (CCRIS), 2018).

In the data set the test system is CCRIS mutagenicity, Ames/micronucleus/aberration tests. Kind of data set: CCRIS mutagenicity studies.

As for `ClC(CBr)CBr`, the mutagenic call reads like this: (Test System: AMES SALMONELLA TYPHIMURIUM, Strain/Indicator: TA100, Metabolic Activation: RAT, LIVER, MICROSOMES, PHENOBARBITAL, NADPH COFACTORS, Method: STANDARD PLATE) “active; positive”; (Test System: AMES SALMONELLA TYPHIMURIUM, Strain/Indicator: TA100, Metabolic Activation: RAT, LIVER, MICROSOMES, PHENOBARBITAL, Method: STANDARD PLATE) “inactive; negative”.
Take `[N-]=[N+]=NC[C@H](CO)Cc1ccccc1`: under “Test System: AMES SALMONELLA TYPHIMURIUM, Strain/Indicator: TA100, Metabolic Activation: RAT, LIVER, S-9, PCB, Method: PREINCUBATION”, the mutagenic call was “active; positive”.
As to `O=C(O)[C@@H]1CS[C@H](c2ccccc2O)N1C(=O)CCS`, the mutagenic call was “inactive; negative” (Test System: AMES SALMONELLA TYPHIMURIUM, Strain/Indicator: TA98, Metabolic Activation: NONE, Method: STANDARD PLATE); “inactive; negative” (Test System: AMES SALMONELLA TYPHIMURIUM, Strain/Indicator: TA98, Metabolic Activation: S-9, Method: STANDARD PLATE); “inactive; negative” (Test System: AMES SALMONELLA TYPHIMURIUM, Strain/Indicator: TA100, Metabolic Activation: NONE, Method: STANDARD PLATE); “inactive; negative” (Test System: AMES SALMONELLA TYPHIMURIUM, Strain/Indicator: TA100, Metabolic Activation: S-9, Method: STANDARD PLATE); “inactive; negative” (Test System: AMES SALMONELLA TYPHIMURIUM, Strain/Indicator: TA1535, Metabolic Activation: NONE, Method: STANDARD PLATE); “inactive; negative” (Test System: AMES SALMONELLA TYPHIMURIUM, Strain/Indicator: TA1535, Metabolic Activation: S-9, Method: STANDARD PLATE). Further, the mutagenic call is “inactive; negative” (Test System: AMES SALMONELLA TYPHIMURIUM, Strain/Indicator: TA1537, Metabolic Activation: NONE, Method: STANDARD PLATE); “inactive; negative” (Test System: AMES SALMONELLA TYPHIMURIUM, Strain/Indicator: TA1537, Metabolic Activation: S-9, Method: STANDARD PLATE); “inactive; negative” (Test System: AMES SALMONELLA TYPHIMURIUM, Strain/Indicator: TA1538, Metabolic Activation: NONE, Method: STANDARD PLATE); “inactive; negative” (Test System: AMES SALMONELLA TYPHIMURIUM, Strain/Indicator: TA1538, Metabolic Activation: S-9, Method: STANDARD PLATE); “inactive; negative” (Test System: E. COLI, Strain/Indicator: WP2, Metabolic Activation: NONE, Method: STANDARD PLATE); “inactive; negative” (Test System: E. COLI, Strain/Indicator: WP2 UVRA, Metabolic Activation: NONE, Method: STANDARD PLATE). Besides, the mutagenic call (Test System: E. COLI, Strain/Indicator: WP2 UVRA, Metabolic Activation: S-9, Method: STANDARD PLATE) was “inactive; negative”.
